In series [1] the test system is PC-12. The series is described as follows: Neuritogenic activity in rat PC12 cells assessed as neurite outgrowth at 1 to 30 uM after 4 days by phase-contrast microscopy in presence of 2 ng/ml NGF. Type of series: functional, cell-based.
Series [2] in a line: Toxicity in rat PC12 cells at > 10 uM after 4 days by phase-contrast microscopy in presence of 2 ng/ml NGF. It counts as cell-based. To be noted: pc-12, 96 h.
Series [3] relates to PC-12. The series is described as follows: Neuritogenic activity in rat PC12 cells assessed as neurite outgrowth at 1 uM after 4 days by phase-contrast microscopy in presence of 2 ng/ml NGF. It counts as functional, cell-based.
The target in series [4] is Amyloid-beta precursor protein (Homo sapiens) (UniProt P05067). The series is described as follows: Inhibition of beta-sheet formation in amyloid beta-42 (unknown origin) assessed as decrease in ThT fluorescence at 50 uM after 1 hr by spectrophotometric plate reader.
Chain of Amyloid-beta precursor protein (Homo sapiens) (P05067 whole entry): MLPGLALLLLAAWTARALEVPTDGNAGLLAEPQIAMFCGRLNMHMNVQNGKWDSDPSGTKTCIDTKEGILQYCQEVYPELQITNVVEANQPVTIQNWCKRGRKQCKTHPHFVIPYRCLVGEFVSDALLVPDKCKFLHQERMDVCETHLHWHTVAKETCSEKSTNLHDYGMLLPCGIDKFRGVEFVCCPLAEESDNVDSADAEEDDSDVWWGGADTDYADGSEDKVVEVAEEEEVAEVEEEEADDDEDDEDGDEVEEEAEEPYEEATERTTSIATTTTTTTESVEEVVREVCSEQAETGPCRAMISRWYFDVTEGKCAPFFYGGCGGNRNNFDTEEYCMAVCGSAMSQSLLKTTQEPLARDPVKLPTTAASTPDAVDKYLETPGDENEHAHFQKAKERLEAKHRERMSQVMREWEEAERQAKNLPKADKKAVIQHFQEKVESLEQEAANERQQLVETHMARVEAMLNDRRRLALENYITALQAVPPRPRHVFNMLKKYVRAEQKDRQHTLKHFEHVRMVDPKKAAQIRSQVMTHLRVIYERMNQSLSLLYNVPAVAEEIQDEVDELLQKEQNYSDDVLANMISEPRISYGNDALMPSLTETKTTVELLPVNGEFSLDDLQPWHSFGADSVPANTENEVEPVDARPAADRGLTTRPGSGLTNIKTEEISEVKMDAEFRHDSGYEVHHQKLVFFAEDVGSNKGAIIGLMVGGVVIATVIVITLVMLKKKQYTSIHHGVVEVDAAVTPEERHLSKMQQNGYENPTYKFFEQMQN
The subject of series [5] is PC-12. Description: Neuritogenic activity in rat PC12 cells assessed as neurite outgrowth after 4 days by phase-contrast microscopy in presence of 2 ng/ml NGF. It counts as functional, cell-based.
The target in series [6] is Amyloid-beta precursor protein (Homo sapiens) (UniProt P05067). Description: Inhibition of beta-sheet formation in amyloid beta-42 (unknown origin) assessed as decrease in ThT fluorescence after 1 hr by spectrophotometric plate reader.
Series [7] has as its system PC-12. Description: Neuritogenic activity in rat PC12 cells assessed as neurite outgrowth at 30 uM after 4 days by phase-contrast microscopy. It counts as functional, cell-based.
In series [8] the test system is PC-12. The series is described as follows: Neuritogenic activity in rat PC12 cells assessed as neurite outgrowth at 10 uM after 4 days by phase-contrast microscopy in presence of 2 ng/ml NGF. Type of series: functional, cell-based.
Series [9] is described as follows: Toxicity in rat PC12 cells at > 30 uM after 4 days by phase-contrast microscopy in presence of 2 ng/ml NGF. As to conditions: pc-12, 96 h. Type of series: cell-based.

Each structure is given as a SMILES string. Active and inactive are the calls of the source. The calls are words filed in the database; no cut-off is given here.

As for `COc1ccc([C@H]2[C@H](CCO)CC=C[C@@H]2c2ccc(OC)c(OC)c2)cc1OC`, the result in series [1] was inactive.

A word on the inhibition: it is how much of the control response was suppressed. With `COc1cc(/C=C/C(=O)C2(C(=O)/C=C/c3ccc(O)c(OC)c3)CCC=C[C@@H]2c2ccc(OC)c(OC)c2)ccc1O`, the values for the Activity entry in series [2] and in series [5] were “Toxic” and “Dose-dependent effect”, respectively. Also, the result in series [3] was Active. Further, the inhibition in [4] is 18.9%; in series [6] it was “Dose-dependent effect”.

Consider `COc1ccc(/C=C/[C@H]2CCC=C[C@@H]2c2ccc(OC)c(OC)c2)cc1OC`, for which the figures for the inhibition in series [4] and in [6] were 59.6% and “Dose-dependent effect”, respectively. Also, the result in series [7] was Active.

`COc1cc(/C=C/C(=O)C2(C(=O)/C=C/c3ccc(O)c(OC)c3)CCC=C[C@@H]2c2cc(OC)c(OC)cc2OC)ccc1O`: the outcome in [3] and in series [8] was Active. For the same compound, the Activity entry in series [5] was “Dose-dependent effect”; in series [9], “Toxic”.

(Values after ChEMBL document CHEMBL3399981, “Novel neurotrophic phenylbutenoids from Indonesian ginger Bangle, Zingiber purpureum” (Bioorg Med Chem Lett, 2015).)
